Values joined by “and” are separate entries in the source; they are usually repeats but may differ in a detail not shown here. Equal entries are not always repeated.
Target: T1, recombinant perforin (Mus musculus, UniProt P10820)
T1 sequence (P10820 21-554): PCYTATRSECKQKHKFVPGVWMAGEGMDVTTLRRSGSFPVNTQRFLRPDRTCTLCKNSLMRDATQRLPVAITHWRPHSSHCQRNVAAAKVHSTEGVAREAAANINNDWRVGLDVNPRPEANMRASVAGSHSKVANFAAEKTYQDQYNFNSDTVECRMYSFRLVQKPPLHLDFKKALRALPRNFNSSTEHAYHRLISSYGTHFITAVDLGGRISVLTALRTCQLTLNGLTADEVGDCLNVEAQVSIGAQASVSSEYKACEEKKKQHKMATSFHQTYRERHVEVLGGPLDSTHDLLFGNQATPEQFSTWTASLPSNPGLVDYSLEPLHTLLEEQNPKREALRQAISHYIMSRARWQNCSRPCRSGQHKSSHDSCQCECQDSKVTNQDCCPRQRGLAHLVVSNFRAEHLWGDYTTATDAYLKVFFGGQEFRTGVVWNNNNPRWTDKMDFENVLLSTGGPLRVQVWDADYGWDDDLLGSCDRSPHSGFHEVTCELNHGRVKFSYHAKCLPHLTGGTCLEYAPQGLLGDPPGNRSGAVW
Assay: Inhibition of perforin-mediated lysis of Jurkat cells (51Cr release)
Format: cell-based
Settings: recombinant perforin, 0.1% BSA, 51Cr release, 4 h; average of at least two determinations
Protocol: The ability of the compounds to inhibit the lysis of nucleated (Jurkat T lymphoma) cells in the presence of 0.1% BSA, as measured by release of ^51Cr was measured. Jurkat target cells were labelled by incubation in medium with 100 µCi ^51Cr for one hour. The cells were then washed three times to remove unincorporated isotope and re-suspended at 1 x 10^5 cells per mL in RPMI buffer supplemented with 0.1% BSA. […] The supernatant was collected and assessed for its radioactive content on a gamma counter (Wallac Wizard 1470 automatic gamma counter). Each data point was performed in triplicate and an IC50 was calculated from the range of concentrations described to above.

Inhibition of Jurkat cell lysis IC50 | Structure (SMILES)
poor activity | CC1c2cc(-c3ccc(-c4cncc(NS(=O)(=O)c5ccc(F)cc5F)c4)s3)ccc2C(=O)N1C (stereo not shown) [Compound 13]

Same assay, conditions: recombinant perforin, 0.1% BSA, 51Cr release, 4 h; average of at least two determinations; read-out: Inhibition of Jurkat cell lysis IC50

IC50 [µM] | Structure (SMILES)
> 20 | O=C1NCCc2cc(-c3ccc(-c4cncc(NS(=O)(=O)c5ccc(F)cc5F)c4)s3)ccc21 [Compound 9]
> 20 | CN1CCc2cc(-c3ccc(-c4cncc(NS(=O)(=O)c5ccc(F)cc5F)c4)s3)ccc2C1=O [Compound 10]
> 20 | O=C1NCCc2ccc(-c3ccc(-c4cncc(NS(=O)(=O)c5ccc(F)cc5F)c4)s3)cc21 [Compound 11]
> 20 | CC1c2cc(-c3ccc(-c4cncc(NS(=O)(=O)c5ccc(F)cc5F)c4)s3)ccc2C(=O)N1C (stereo not shown) [Compound 13]
15 | CN1Cc2cc(-c3ccc(-c4cncc(NS(=O)(=O)c5ccc(F)cc5F)c4)o3)ccc2C1=O [Compound 19]
> 20 | CN1Cc2cc(-c3nc(-c4cncc(NS(=O)(=O)c5ccc(F)cc5F)c4)cs3)ccc2C1=O [Compound 21]

Tested on: not listed separately
Assay: Solubility of the sodium salt in water
Format: physicochemical
Settings: sodium salt in water

solubility [µg/mL] | Structure (SMILES)
1100 | CN1Cc2cc(-c3ccc(-c4cncc(NS(=O)(=O)c5ccc(F)cc5F)c4)s3)ccc2C1=O [Compound 5]
10600 | O=C1NCc2cc(-c3ccc(-c4cncc(NS(=O)(=O)c5ccc(F)cc5F)c4)s3)ccc21 [Compound 6]

Same assay, conditions: sodium salt in water at room temperature

solubility [µg/mL] | Structure (SMILES)
1080 | CN1Cc2cc(-c3ccc(-c4cncc(NS(=O)(=O)c5ccc(F)cc5F)c4)s3)ccc2C1=O [Compound 5]
10600 | O=C1NCc2cc(-c3ccc(-c4cncc(NS(=O)(=O)c5ccc(F)cc5F)c4)s3)ccc21 [Compound 6]

Target: T1, recombinant perforin
Assay: not given
Settings: diarylthiophene series; cited from earlier work

Structure (SMILES) | Inhibition of isolated perforin
CS(=O)(=O)Nc1ccc(-c2ccc(-c3ccc4c(c3)COC4=O)s2)cc1 [Compound 2] | sub-micromolar
NC(=O)c1ccc(-c2ccc(-c3ccc4c(c3)COC4=O)s2)cn1 [Compound 3] | sub-micromolar

Target: Class I PI3-kinase enzyme p110α/p85 (Homo sapiens, UniProt P42336)
Assay: PI3K-α counterscreening
Format: biochemical
Settings: recombinant PI3-kinase, phosphatidylinositol substrate, [33P]-ATP; read-out: PI3Kα IC50
Protocol: Given that the pyridine-3-yl-2,4-difluorobenzenesulphonamide subunit is derived from a structure that was optimised to target PI3Kα, it was also considered prudent to counter-screen for off-target effects related to this pathway.
Compounds were evaluated for their ability to inhibit the Class I PI3-kinase enzyme p110α/p85.

Class I PI3-kinase enzyme p110α/p85, sequence (P42336 whole entry): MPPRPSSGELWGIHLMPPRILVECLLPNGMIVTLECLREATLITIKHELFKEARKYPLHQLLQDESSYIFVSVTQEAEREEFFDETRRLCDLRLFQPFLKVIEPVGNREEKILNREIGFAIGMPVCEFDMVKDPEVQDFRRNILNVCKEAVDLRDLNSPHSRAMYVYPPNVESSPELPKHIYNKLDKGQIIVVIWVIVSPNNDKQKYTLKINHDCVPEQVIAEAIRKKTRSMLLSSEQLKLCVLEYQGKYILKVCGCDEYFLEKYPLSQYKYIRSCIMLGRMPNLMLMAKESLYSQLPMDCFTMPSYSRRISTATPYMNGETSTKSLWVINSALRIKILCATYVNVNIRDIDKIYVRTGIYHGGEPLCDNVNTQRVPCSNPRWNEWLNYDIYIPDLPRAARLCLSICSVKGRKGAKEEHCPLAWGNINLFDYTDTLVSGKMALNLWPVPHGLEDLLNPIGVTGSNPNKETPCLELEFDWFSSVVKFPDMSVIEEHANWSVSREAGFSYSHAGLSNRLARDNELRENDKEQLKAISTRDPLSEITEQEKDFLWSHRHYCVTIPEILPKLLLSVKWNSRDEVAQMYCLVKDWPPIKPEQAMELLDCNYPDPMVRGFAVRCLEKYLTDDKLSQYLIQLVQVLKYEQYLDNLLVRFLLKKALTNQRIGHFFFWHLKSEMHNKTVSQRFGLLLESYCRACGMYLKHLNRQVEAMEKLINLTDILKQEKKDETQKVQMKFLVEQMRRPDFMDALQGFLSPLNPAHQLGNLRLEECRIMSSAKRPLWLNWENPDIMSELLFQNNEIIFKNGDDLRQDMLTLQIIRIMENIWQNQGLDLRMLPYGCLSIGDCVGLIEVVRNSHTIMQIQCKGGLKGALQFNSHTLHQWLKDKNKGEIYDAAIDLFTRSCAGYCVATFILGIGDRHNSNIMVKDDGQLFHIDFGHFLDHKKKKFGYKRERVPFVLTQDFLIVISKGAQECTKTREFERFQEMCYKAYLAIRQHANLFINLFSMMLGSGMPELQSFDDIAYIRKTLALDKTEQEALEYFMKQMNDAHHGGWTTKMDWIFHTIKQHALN
Class I PI3-kinase enzyme p110α/p85, sequence (P27986 whole entry partner): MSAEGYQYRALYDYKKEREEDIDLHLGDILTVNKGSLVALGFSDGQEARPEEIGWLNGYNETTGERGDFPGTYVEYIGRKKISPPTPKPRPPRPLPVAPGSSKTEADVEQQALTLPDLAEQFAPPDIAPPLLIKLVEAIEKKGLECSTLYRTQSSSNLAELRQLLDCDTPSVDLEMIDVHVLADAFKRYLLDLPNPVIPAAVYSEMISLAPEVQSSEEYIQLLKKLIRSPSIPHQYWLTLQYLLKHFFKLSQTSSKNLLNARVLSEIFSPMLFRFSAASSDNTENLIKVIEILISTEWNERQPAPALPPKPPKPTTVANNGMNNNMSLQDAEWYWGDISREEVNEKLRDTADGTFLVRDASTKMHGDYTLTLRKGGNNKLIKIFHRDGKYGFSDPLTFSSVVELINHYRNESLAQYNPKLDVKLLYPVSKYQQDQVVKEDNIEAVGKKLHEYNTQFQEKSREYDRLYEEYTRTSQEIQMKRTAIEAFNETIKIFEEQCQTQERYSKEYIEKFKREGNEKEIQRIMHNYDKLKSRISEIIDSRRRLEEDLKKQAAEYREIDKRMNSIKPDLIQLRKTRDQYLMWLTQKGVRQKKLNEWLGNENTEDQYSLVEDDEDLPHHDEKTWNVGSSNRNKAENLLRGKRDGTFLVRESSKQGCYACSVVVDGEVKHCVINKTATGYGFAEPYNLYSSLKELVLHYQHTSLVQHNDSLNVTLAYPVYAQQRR

IC50 [µM] | Structure (SMILES)
> 6.25 | CN1Cc2cc(-c3ccc(-c4cncc(NS(=O)(=O)c5ccc(F)cc5F)c4)s3)ccc2C1=O [Compound 5]

Tested on: not listed separately
Assay: Stability in solution (water)
Format: physicochemical
Settings: sodium salt, 24 h at 20 °C in water

Stability in solution (% parent remaining) | Structure (SMILES)
82% and 81.5% | CN1Cc2cc(-c3ccc(-c4cncc(NS(=O)(=O)c5ccc(F)cc5F)c4)s3)ccc2C1=O [Compound 5]
82.0% | O=C1NCc2cc(-c3ccc(-c4cncc(NS(=O)(=O)c5ccc(F)cc5F)c4)s3)ccc21 [Compound 6]

Tested on: not listed separately
Assay: Microsome stability, mouse
Format: in vitro ADME
Settings: sodium salt, mouse microsomes, 30 min

Microsome stability (% parent remaining), Mouse [%] | Structure (SMILES)
92 | O=C1NCc2cc(-c3ccc(-c4cncc(NS(=O)(=O)c5ccc(F)cc5F)c4)s3)ccc21 [Compound 6]

Tested on: not listed separately
Assay: Plasma protein binding by equilibrium dialysis
Format: in vitro ADME
Settings: mouse plasma, 6 h incubation at 37 °C

fraction unbound at 6 h | Structure (SMILES)
0.0011 | CN1Cc2cc(-c3ccc(-c4cncc(NS(=O)(=O)c5ccc(F)cc5F)c4)s3)ccc2C1=O [Compound 5]
0.003 | O=C1NCc2cc(-c3ccc(-c4cncc(NS(=O)(=O)c5ccc(F)cc5F)c4)s3)ccc21 [Compound 6]

Tested on: KHYG-1 NK cells
Assay: Toxicity to KHYG-1 NK cells (Trypan blue exclusion)
Format: cell-based, human
Settings: after 24 h, ± SEM, 20 µM
Protocol: (§1) The use of NK cells to secrete perforin rather than employing isolated recombinant protein is a more stringent test of a compound’s ability to block lytic activity, requiring the inhibitor to access the synaptic cleft between effector (NK) and target cells where perforin is released.
(§2) The toxicity assay was carried out in exactly the same manner as the killing assay above, but instead of adding the labelled K562 target cells, 100 μL of RPMI 0.1% BSA was added. Cells were incubated for 4 h at 37 °C and then washed ×3 in RPMI + 0.1% BSA. […] Trypan blue was added to each well. Viable (clear) cells and total (clear + blue) cells were counted, and the percentage of viable cells was calculated compared to DMSO treated cell control (% viability).

Structure (SMILES) | KHYG-1 viability (% at 20 μM) [%]
O=C1NCc2cc(-c3ccc(-c4cncc(NS(=O)(=O)c5ccc(F)cc5F)c4)s3)ccc21 [Compound 6] | 94 ± 4.0

Tested on: not listed separately
Assay: as above
Format: cell-based, human
Settings: human, KHYG-1 NK cells, after 24 h, ± SEM
Protocol: as §1, §2

Structure (SMILES) | viability at 24 h, 20 µM [%]
O=C1NCc2cc(-c3ccc(-c4cncc(NS(=O)(=O)c5ccc(F)cc5F)c4)s3)ccc21 [Compound 6] | > 90

Target: T2, perforin delivered by KHYG-1 NK cells (Homo sapiens, UniProt P14222)
T2 construct: The use of NK cells to secrete perforin rather than employing isolated recombinant protein is a more stringent test; endogenous in cells; host or cells: KHYG-1 NK cells (effector), K562 target cells
T2 sequence (P14222 22-555): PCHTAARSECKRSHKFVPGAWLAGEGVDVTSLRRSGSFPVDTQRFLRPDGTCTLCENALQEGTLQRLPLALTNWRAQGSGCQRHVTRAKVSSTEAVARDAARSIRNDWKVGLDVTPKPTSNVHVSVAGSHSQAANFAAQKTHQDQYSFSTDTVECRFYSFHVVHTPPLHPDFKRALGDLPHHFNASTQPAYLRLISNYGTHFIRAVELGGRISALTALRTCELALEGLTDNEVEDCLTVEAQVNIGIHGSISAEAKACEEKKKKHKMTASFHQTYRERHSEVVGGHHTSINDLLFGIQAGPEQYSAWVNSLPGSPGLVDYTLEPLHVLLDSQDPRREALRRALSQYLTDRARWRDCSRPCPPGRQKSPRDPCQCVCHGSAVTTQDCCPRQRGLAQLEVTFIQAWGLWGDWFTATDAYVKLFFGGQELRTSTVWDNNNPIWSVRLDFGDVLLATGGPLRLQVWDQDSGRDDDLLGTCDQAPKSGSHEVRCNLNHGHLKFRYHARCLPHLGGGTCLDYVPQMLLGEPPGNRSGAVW
Assay: KHYG-1 cytotoxicity assay: inhibition of NK cell lysis of 51Cr-labelled K562 target cells
Format: cell-based
Settings: lysis of 51Cr-labelled K562 cells co-incubated with KHYG-1 NK cells, vs untreated control, ± SEM
Protocol: as §1
Test compounds are then added (50 µL) at a final concentration of 20µM and incubated at RT for 20 min. ^51Cr-labelled K562 leukemia target cells (50 µL, 2 x 10^5 cells/mL) are then added to each well and incubated at 37 °C for 4 hours. ^51Cr release is assayed using a Skatron Harvesting Press and radioactivity estimated on a Wallac Wizard 1470 Automatic Gamma counter (Turku, Finland). The inhibitory function is then determined by identifying the number of untreated or inhibitor treated effector cells required to kill the same number of targets. The percent inhibition is calculated by the formula: […]
Where x is the point the inhibitor intersects with the DMSO on a curve.

Structure (SMILES) | inhibition at 20 µM [%]
CN1Cc2cc(-c3ccc(-c4cncc(NS(=O)(=O)c5ccc(F)cc5F)c4)s3)ccc2C1=O [Compound 5] | 88 ± 3.8

Tested on: not listed separately
Assay: Microsome stability, rat
Format: in vitro ADME
Settings: sodium salt, rat microsomes, 30 min

Microsome stability (% parent remaining), Rat [%] | Structure (SMILES)
88 | O=C1NCc2cc(-c3ccc(-c4cncc(NS(=O)(=O)c5ccc(F)cc5F)c4)s3)ccc21 [Compound 6]

Tested on: not listed separately
Assay: Microsome stability, human
Format: in vitro ADME
Settings: sodium salt, human microsomes, 30 min

Microsome stability (% parent remaining), Human [%] | Structure (SMILES)
58 | CN1Cc2cc(-c3ccc(-c4cncc(NS(=O)(=O)c5ccc(F)cc5F)c4)s3)ccc2C1=O [Compound 5]
85 | O=C1NCc2cc(-c3ccc(-c4cncc(NS(=O)(=O)c5ccc(F)cc5F)c4)s3)ccc21 [Compound 6]

Source: paper PMC5303009, “Benzenesulphonamide inhibitors of the cytolytic protein perforin” (Bioorganic & Medicinal Chemistry Letters, 2017)
